Data: US7205300B2, “Aryl fused azapolycyclic compounds” (Pfizer Inc, priority 1997, dated 2007)

melting point | SMILES
> 250 °C | CN1CC2CC(C1)c1cc3nccnc3cc12.Cl
254 to 255 °C | Cc1ccc2c(c1)C1CNCC2C1.Cl (stereo not shown)
225 to 230 °C | Cc1nc2cc3c(cc2n1C)C1CNCC3C1.Cl (stereo not shown)
198 to 202 °C | CC(=O)c1ccc2c(c1)C1CNCC2C1.Cl (stereo not shown)
300 °C (dec.) | Cl.O=c1ccc2cc3c(cc2[nH]1)C1CNCC3C1 (stereo not shown)
288 to 291 °C (dec.) | CCc1cnc2cc3c(cc2c1)C1CNCC3C1.Cl (stereo not shown)
260 °C (dec.) | Cl.c1cnc2cc3c(cc2c1)C1CNCC3C1 (stereo not shown)
260 to 262 °C | Cl.Fc1ccc2c(c1)C1CNCC2C1 (stereo not shown)
262 to 265 °C | Cl.c1ccc(-c2cccc3c2C2CNCC3C2)cc1 (stereo not shown)
275 to 277 °C | Cl.FC(F)(F)c1cccc2c1C1CNCC2C1 (stereo not shown)
210 to 213 °C | Cl.c1ccc(-n2cnc3cc4c(cc32)C2CNCC4C2)cc1 (stereo not shown)
253 to 255 °C | Cl.Oc1cccc2c1C1CNCC2C1 (stereo not shown)
147 to 150 °C | CC(C)Cn1cnc2cc3c(cc21)C1CNCC3C1.Cl (stereo not shown)
129 to 130 °C | Cc1nc2cc3c(cc2n1CC(C)C)C1CNCC3C1.Cl (stereo not shown)
> 300 °C (dec.) | Cc1ccc2cc3c(cc2n1)C1CNCC3C1.Cl (stereo not shown)
268 to 273 °C | Cl.N#Cc1ccc2c(c1)C1CNCC2C1 (stereo not shown)
189 to 192 °C | Cl.Nc1ccc2c(c1)C1CNCC2C1 (stereo not shown)
> 250 °C | Cc1nc2cc3c(cc2o1)C1CNCC3C1.Cl (stereo not shown)
183 to 184 °C | Cc1nc2cc3c(cc2s1)C1CNCC3C1.Cl (stereo not shown)
249 to 251 °C | CC(C)c1nc2cc3c(cc2o1)C1CNCC3C1.Cl (stereo not shown)
225 to 230 °C | CC(=O)Nc1ccc2c(c1)C1CNCC2C1.Cl (stereo not shown)
265 to 270 °C | Cl.O=[N+]([O-])c1ccc2c(c1)C1CNCC2C1 (stereo not shown)
269 to 271 °C | Cl.Fc1cccc2c1C1CNCC2C1 (stereo not shown)
125 to 130 °C | Cl.O=C(Nc1cc2c(cc1O)C1CNCC2C1)c1ccccc1F (stereo not shown)
> 250 °C | Cl.c1nc2cc3c(cc2[nH]1)C1CNCC3C1 (stereo not shown)
301 to 303 °C | Cl.Fc1cc2c(cc1F)C1CNCC2C1
> 250 °C | Cc1nc2cc3c(cc2n1-c1ccccc1)C1CNCC3C1.Cl (stereo not shown)
283 to 291 °C | Cl.Clc1cc2c(cc1Cl)C1CNCC2C1
